Experimental data published in PMC6273369, “Synthesis, Biological Evaluation and Molecular Modelling of 2′-Hydroxychalcones as Acetylcholinesterase Inhibitors” (Molecules, 2016).
Where two headings read alike, the source gives them in different places.

Legend:
human AChE [1] = target: T1, human AChE (Homo sapiens, UniProt P22303); test: biochemical; conditions: for inhibition at 10 µM: read-out: % Inhibition at 10 µM; for IC50: mean ± SEM
T1 construct: purchased Sigma-Aldrich
Protocol: AChE and BChE inhibition studies were performed in 96 well plates by the method of Ellman, et al.. […] The mixture was preincubated for 20 min at 37 °C before addition of 50 μL (0.120 mM) of the substrate, acetylthiocholine (ATC) iodide or butyrylthiocholine (BTC) iodide (depending on the enzyme). […] Each assay was performed in triplicate. […] The percentage of inhibition was calculated using the expression: (E–S)/E × 100 where E is the activity of the enzyme without test compound and S is the activity of the enzyme with test compound.
(§1) IC50 values were obtained from concentration-inhibition experiments by nonlinear regression analysis using PRISM® v5.0 (GraphPad Inc., San Diego, CA, USA).

human AChE [2] = target: T1, human AChE; test: Kinetic characterisation of AChE inhibition (Lineweaver-Burk, nonlinear regression mixed-model); format: biochemical; conditions: substrate acetylthiocholine 0.1-1.0 mM, read-out: Apparent Ki, human AChE
Protocol: […]. The mode of inhibition was investigated using Lineweaver–Burk plots of 1/initial reaction rate (1/V) against 1/substrate concentration (1/[S]). Apparent inhibition constant (Ki and Ki′) values were determined using the nonlinear regression mixed-model inhibition method in PRISM® v5.0 (GraphPad Inc.).

equine BChE = target: T2, equine BChE (Equus caballus, UniProt P81908); test: Equine BChE inhibition, Ellman's method; format: biochemical; conditions: for Selectivity for AChE: IC50 (BChE)/IC50 (AChE); for IC50: equine BChE, mean ± SEM
T2 construct: purchased Sigma-Aldrich
T2 sequence (P81908 whole entry): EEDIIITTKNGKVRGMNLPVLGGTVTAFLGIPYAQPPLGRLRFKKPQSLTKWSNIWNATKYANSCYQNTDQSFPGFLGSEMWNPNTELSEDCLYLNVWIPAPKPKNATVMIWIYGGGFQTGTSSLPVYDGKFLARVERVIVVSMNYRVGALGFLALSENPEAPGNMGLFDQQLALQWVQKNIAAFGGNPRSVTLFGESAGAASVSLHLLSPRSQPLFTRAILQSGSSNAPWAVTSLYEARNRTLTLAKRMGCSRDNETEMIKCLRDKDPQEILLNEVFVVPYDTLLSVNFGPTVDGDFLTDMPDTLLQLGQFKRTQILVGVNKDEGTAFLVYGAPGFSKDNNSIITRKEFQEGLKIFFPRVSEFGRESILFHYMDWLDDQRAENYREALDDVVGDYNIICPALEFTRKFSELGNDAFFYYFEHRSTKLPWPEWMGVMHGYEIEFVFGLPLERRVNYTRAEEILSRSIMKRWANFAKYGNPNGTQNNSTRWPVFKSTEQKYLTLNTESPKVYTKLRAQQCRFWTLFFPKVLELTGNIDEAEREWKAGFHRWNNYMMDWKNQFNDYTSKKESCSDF
Protocol: The IC50 values of the four compounds that gave the greatest inhibition of AChE were also determined for equine BChE, which is readily available and is considered a good model for human BChE [23], as the equine form has 90% sequence identity compared to the human form. […].
AChE and BChE inhibition studies were performed in 96 well plates by the method of Ellman, et al.. 110 μL of sodium phosphate buffer (pH 8.0) was added to each well followed by 20 μL of test compound, 50 μL of 5,5′-dithiobis-(2-nitrobenzoic acid) (DTNB) (0.126 mM) and 20 μL of AChE or BChE (0.15 units/mL). The mixture was preincubated for 20 min at 37 °C before addition of 50 μL (0.120 mM) of the substrate, acetylthiocholine (ATC) iodide or butyrylthiocholine (BTC) iodide (depending on the enzyme). The hydrolysis of ATC or BTC was monitored using an Infinite® M200 PRO multimode reader (Tecan Group Ltd., Männedorf, Switzerland) by measuring the absorbance due to yellow 5-thio-2-nitrobenzoate anion at 412 nm every 30 s for 25 min. Each assay was performed in triplicate. […] The percentage of inhibition was calculated using the expression: (E–S)/E × 100 where E is the activity of the enzyme without test compound and S is the activity of the enzyme with test compound.
as §1

[3] = human recombinant AChE, 10 µM, mean of triplicate, na = no activity observed at 10 µM

T1 sequence (P22303 32-614): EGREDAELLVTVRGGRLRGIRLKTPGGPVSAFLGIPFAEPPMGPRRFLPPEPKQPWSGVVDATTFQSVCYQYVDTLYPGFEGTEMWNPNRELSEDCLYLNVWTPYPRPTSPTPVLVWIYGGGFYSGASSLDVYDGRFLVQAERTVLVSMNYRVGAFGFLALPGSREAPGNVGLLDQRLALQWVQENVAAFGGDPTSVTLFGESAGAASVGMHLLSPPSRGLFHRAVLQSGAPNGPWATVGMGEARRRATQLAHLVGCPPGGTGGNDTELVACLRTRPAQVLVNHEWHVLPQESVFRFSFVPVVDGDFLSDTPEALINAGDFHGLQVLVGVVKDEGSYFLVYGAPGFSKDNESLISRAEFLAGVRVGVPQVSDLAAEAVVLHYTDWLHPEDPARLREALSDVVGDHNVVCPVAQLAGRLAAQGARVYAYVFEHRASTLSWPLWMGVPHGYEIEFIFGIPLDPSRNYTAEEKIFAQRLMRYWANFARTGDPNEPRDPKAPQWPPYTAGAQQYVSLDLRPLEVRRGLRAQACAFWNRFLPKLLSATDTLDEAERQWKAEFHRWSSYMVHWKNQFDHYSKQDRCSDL

| Structure (SMILES) | inhibition at 10 µM (human AChE [1]) | inhibition at 10 µM (human AChE [1]; [3]) | IC50 (human AChE [1]; human recombinant AChE) | Ki (human AChE [2]) | Selectivity for AChE (equine BChE) | IC50 (equine BChE) |
| --- | --- | --- | --- | --- | --- | --- |
| O=C(/C=C/c1ccccc1)c1ccccc1O [Compound 1, 2′-Hydroxychalcone] | 11% |  |  |  |  |  |
| CN(C)c1ccc(/C=C/C(=O)c2ccccc2O)cc1 [Compound 5, 2′-Hydroxy-4-(dimethylamino)chalcone] |  | 28% | 266 ± 48 µM |  |  |  |
| COc1ccc(/C=C/C(=O)c2ccccc2O)cc1 [Compound 6, 2′-Hydroxy-4-methoxychalcone] | 6% |  |  |  |  |  |
| O=C(/C=C/c1ccccc1Br)c1ccccc1O [Compound 7, 2-Bromo-2′-hydroxychalcone] |  | 38% | 55 ± 12 µM | 40 µM | 2.0 | 108 ± 18 µM |
| COc1cc(O)c(C(=O)/C=C/c2ccc(C)cc2)c(OC)c1 [Compound 9, 2′-Hydroxy-4′,6′-dimethoxy-4-methylchalcone] |  | 23% | 354 ± 33 µM |  |  |  |
| COc1cc(O)c(C(=O)/C=C/c2ccc(Br)cc2)c(OC)c1 [Compound 10, 4-Bromo-2′-hydroxy-4′,6′-dimethoxychalcone] |  | 30% | 41 ± 13 µM | 31 µM | 1.4 | 59 ± 12 µM |
| COc1cc(O)c(C(=O)/C=C/c2ccc(N(C)C)cc2)c(OC)c1 [Compound 11, 2′-Hydroxy-4′,6′-dimethoxy-4-(dimethylamino)chalcone] |  | 5% |  |  |  |  |
| COc1ccc(/C=C/C(=O)c2c(O)cc(OC)cc2OC)cc1 [Compound 12, 2′-Hydroxy-4,4′,6′-trimethoxychalcone] |  | 7% |  |  |  |  |
| COc1cc(O)c(C(=O)/C=C/c2ccccc2Br)c(OC)c1 [Compound 13, 2-Bromo-2′-hydroxy-4′,6′-dimethoxychalcone] |  | 23% | 85 ± 16 µM | 113 µM |  | 71 ± 14 µM |
| COc1cc(O)c(C(=O)/C=C/c2cc(Cl)cc(Cl)c2O)c(OC)c1 [Compound 14, 3,5-Dichloro-2,2′-dihydroxy-4′,6′-dimethoxychalcone] |  | 51% | 73 ± 22 µM | 56 µM | 1.1 | 81 ± 18 µM |
